# Tests used:
# Assay type in all cases: functional
# Streptococcus pneumoniae [1] = test: Antibacterial activity against macrolide resistant Streptococcus pneumoniae ATCC 700677
# Enterococcus faecalis = test: Antibacterial activity against Enterococcus faecalis ATCC 51575
# Streptococcus pneumoniae [2] = test: Antibacterial activity against Streptococcus pneumoniae ATCC 49619
# Staphylococcus aureus [3] = test: Antibacterial activity against macrolide resistant Staphylococcus aureus ATCC 33591
# Staphylococcus aureus [4] = test: Antibacterial activity against macrolide resistant Staphylococcus aureus ATCC 141541
# Streptococcus pneumoniae [5] = test: Antibacterial activity against macrolide resistant Streptococcus pneumoniae ATCC 700905
# Staphylococcus aureus [6] = test: Antibacterial activity against Staphylococcus aureus ATCC 29213
# Streptococcus pneumoniae [7] = test: Antibacterial activity against Streptococcus pneumoniae ATCC 700671
# Staphylococcus aureus [8] = test: Antibacterial activity against macrolide resistant Staphylococcus aureus ATCC BAA-44
# Staphylococcus aureus [9] = test: Antibacterial activity against macrolide resistant Staphylococcus aureus ATCC BAA-39
# Streptococcus pneumoniae [10] = test: Antibacterial activity against macrolide resistant Streptococcus pneumoniae ATCC 700676
# Staphylococcus aureus [11] = test: Antibacterial activity against Staphylococcus aureus ATCC 6538p
# [12] = system: Staphylococcus epidermidis; test: Antibacterial activity against Staphylococcus epidermidis ATCC 12228
# Streptococcus pneumoniae [13] = test: Antibacterial activity against Streptococcus pneumoniae ATCC 6301
# Streptococcus pneumoniae [14] = test: Antibacterial activity against macrolide resistant Streptococcus pneumoniae ATCC 700906
SMILES,MIC (Streptococcus pneumoniae [1]),MIC (Enterococcus faecalis),MIC (Streptococcus pneumoniae [2]),MIC (Staphylococcus aureus [3]),MIC (Staphylococcus aureus [4]),MIC (Streptococcus pneumoniae [5]),MIC (Staphylococcus aureus [6]),MIC (Streptococcus pneumoniae [7]),MIC (Staphylococcus aureus [8]),MIC (Staphylococcus aureus [9]),MIC (Streptococcus pneumoniae [10]),MIC (Staphylococcus aureus [11]),MIC [12],MIC (Streptococcus pneumoniae [13]),MIC (Streptococcus pneumoniae [14])
CC[C@H]1OC(=O)C[C@@H](O)[C@H](C)[C@@H](O[C@@H]2O[C@H](C)[C@@H](O)[C@H](N(C)C)[C@H]2O)[C@@H](CC=O)C[C@@H](C)C(=N/OCC#Cc2cnc3ccccc3c2)/C=C/C(C)=C/C1CO (stereo not given in full),> 12.5 µg/mL,> 12.5 µg/mL,0.025 µg/mL,> 12.5 µg/mL,0.39 µg/mL,0.049 µg/mL,0.39 µg/mL,0.025 µg/mL,> 12.5 µg/mL,> 12.5 µg/mL,0.025 µg/mL,0.098 µg/mL,0.098 µg/mL,0.025 µg/mL,> 12.5 µg/mL
CC[C@H]1OC(=O)C[C@@H](O)[C@H](C)[C@@H](O[C@@H]2O[C@H](C)[C@@H](O)[C@H](N(C)C)[C@@H]2O)[C@@H](CCN2CC(C)CC(C)C2)C[C@@H](C)C(=N\OCCOc2ccccc2)/C=C/C(C)=C/C1CO (stereo not given in full),> 12.5 µg/mL,> 12.5 µg/mL,0.39 µg/mL,> 12.5 µg/mL,6.25 µg/mL,0.39 µg/mL,6.25 µg/mL,0.39 µg/mL,> 12.5 µg/mL,> 12.5 µg/mL,0.78 µg/mL,0.78 µg/mL,6.25 µg/mL,0.2 µg/mL,> 12.5 µg/mL
CC[C@H]1OC(=O)C[C@@H](O)[C@H](C)[C@@H](O[C@@H]2O[C@H](C)[C@@H](O[C@H]3C[C@@](C)(O)[C@@H](O)[C@H](C)O3)[C@H](N(C)C)[C@H]2O)[C@@H](CC=O)C[C@@H](C)C(=O)/C=C/C(C)=C/[C@@H]1CO[C@@H]1O[C@H](C)[C@@H](O)[C@@H](OC)[C@H]1OC [TYLOSIN],> 12.5 µg/mL,> 12.5 µg/mL,0.098 µg/mL,> 12.5 µg/mL,1.56 µg/mL,0.2 µg/mL,1.56 µg/mL,0.2 µg/mL,> 12.5 µg/mL,> 12.5 µg/mL,0.2 µg/mL,0.2 µg/mL,0.39 µg/mL,0.098 µg/mL,> 12.5 µg/mL
CC[C@H]1OC(=O)C[C@@H](O)[C@H](C)[C@@H](O[C@@H]2O[C@H](C)[C@@H](O)[C@H](N(C)C)[C@H]2O)[C@@H](CC=O)C[C@@H](C)C(=N\OCc2ccccc2)/C=C/C(C)=C/C1CO (stereo not given in full),3.12 µg/mL,> 12.5 µg/mL,0.2 µg/mL,> 12.5 µg/mL,1.56 µg/mL,0.39 µg/mL,1.56 µg/mL,0.39 µg/mL,> 12.5 µg/mL,> 12.5 µg/mL,0.2 µg/mL,0.78 µg/mL,1.56 µg/mL,0.2 µg/mL,> 12.5 µg/mL
CC[C@H]1OC(=O)C[C@@H](O)[C@H](C)[C@@H](O[C@@H]2O[C@H](C)[C@@H](O)[C@H](N(C)C)[C@H]2O)[C@@H](CCN2C[C@H](C)C[C@H](C)C2)C[C@@H](C)C(=O)/C=C/C(C)=C/[C@@H]1CO[C@@H]1O[C@H](C)[C@@H](O)[C@@H](OC)[C@H]1OC [TILMICOSIN],6.25 µg/mL,> 12.5 µg/mL,1.56 µg/mL,> 12.5 µg/mL,0.39 µg/mL,1.56 µg/mL,0.2 µg/mL,0.78 µg/mL,> 12.5 µg/mL,> 12.5 µg/mL,0.78 µg/mL,0.098 µg/mL,0.098 µg/mL,0.39 µg/mL,> 12.5 µg/mL
CC[C@H]1OC(=O)C[C@@H](O)[C@H](C)[C@@H](O[C@@H]2O[C@H](C)[C@@H](O)[C@H](N(C)C)[C@@H]2O)[C@@H](CCN2CC(C)CC(C)C2)C[C@@H](C)C(=N\OCC(=O)N2CCN(c3ccccc3)CC2)/C=C/C(C)=C/C1CO (stereo not given in full),> 12.5 µg/mL,> 12.5 µg/mL,0.049 µg/mL,> 12.5 µg/mL,3.12 µg/mL,0.78 µg/mL,1.56 µg/mL,0.098 µg/mL,> 12.5 µg/mL,> 12.5 µg/mL,4.56 µg/mL,0.39 µg/mL,0.78 µg/mL,0.049 µg/mL,> 12.5 µg/mL
CC[C@H]1OC(=O)C[C@@H](O)[C@H](C)[C@@H](O[C@@H]2O[C@H](C)[C@@H](O)[C@H](N(C)C)[C@@H]2O)[C@@H](CCN2CC(C)CC(C)C2)C[C@@H](C)C(=N\OCCCc2ccc3ncccc3c2)/C=C/C(C)=C/C1CO (stereo not given in full),> 12.5 µg/mL,> 12.5 µg/mL,6.25 µg/mL,> 12.5 µg/mL,> 12.5 µg/mL,12.5 µg/mL,> 12.5 µg/mL,6.25 µg/mL,> 12.5 µg/mL,> 12.5 µg/mL,12.5 µg/mL,> 12.5 µg/mL,> 12.5 µg/mL,6.25 µg/mL,> 12.5 µg/mL
CC[C@H]1OC(=O)C[C@@H](O)[C@H](C)[C@@H](O[C@@H]2O[C@H](C)[C@@H](O)[C@H](N(C)C)[C@H]2O)[C@@H](CC=O)C[C@@H](C)C(=N/OCc2ccccc2)/C=C/C(C)=C/C1CO (stereo not given in full),1.56 µg/mL,> 12.5 µg/mL,0.2 µg/mL,> 12.5 µg/mL,1.56 µg/mL,0.2 µg/mL,1.56 µg/mL,0.2 µg/mL,> 12.5 µg/mL,> 12.5 µg/mL,0.025 µg/mL,0.39 µg/mL,0.78 µg/mL,0.025 µg/mL,> 12.5 µg/mL

# — ChEMBL document CHEMBL1139006, “Synthesis and in vitro antibiotic activity of 16-membered 9-O-arylalkyloxime macrolides” (2006)
